This is an account of results in US20200206187A1, “SCREENING PLATFORM TO IDENTIFY THERAPEUTIC DRUGS OR AGENTS FOR TREATMENT OF ALZHEIMER'S DISEASE” (priority 2017, published 2020).

Common to all, as to format: cell-based, murine
In data set [1] the test system is wt-CD33 expressing BV2 cells. Kind of data set: Abeta40 uptake assay into wt-CD33 expressing BV2 cells (Cisbio Abeta40 HTRF). The conditions noted are these: wt-CD33 expressing BV2, 3 h pre-treatment, 300 nM Abeta40 for 2 h (FIG. 6). How it is done: (§1) As shown in the figures, compounds were selected and tested in microglial and 3D AD cell culture models at a range of concentrations, and over a period of time ranging from hours to days. The culture models were chosen to elucidate different stages and biological aspects of Alzheimer's disease. The toxicity of the compounds was assessed analyzing the cultures media with the commercially available assay (CytoTox-ONE™, Promega) that measures the release of LDH. Toxic concentrations were excluded from further testing. For microglial cultures, Aβ42 and Aβ40 uptake assays were carried forward for 2 to 24 hours following 3 hours of compound pre-treatment. The experimental outcomes were determined by measuring increased internalized Aβ42 and Aβ40 levels by a commercially available ELISA assay (Wako Abeta42 ELISA kit). Alternatively, LPS-activation assays were carried forward for 3 h following 3 hours of compound pre-treatment. The reduction of toxic cytokines released in the culture media was monitored.
(§2) Naïve BV2 Cells, or BV2 stably expressing wt-CD33, were seeded in 24-well plates at the density of 2.5×10E5 cells for BV2 and 4×10E5 cells for wt-CD33 clone, in proliferating media. […] Protein concentrations in the lysate supernatants were determined with the Pierce™ BCA protein assay kit. 2-3 μg/well of protein from the lysates was analyzed for Abeta42 uptake using the Wako Abeta42 ELISA kit. […]
(In TR-FRET formats the signal depends on donor and acceptor labels being close together.)

The subject of data set [2] is naïve BV2 microglial cells. Description: Abeta42 uptake assay into naïve BV2 microglial cells (Wako Abeta42 ELISA). The conditions noted are these: naïve BV2, 3 h pre-treatment, 300 nM Abeta42 for 2 h (FIG. 3). How it is done: as §1, §2
In general terms: ELISA stands for enzyme-linked immunosorbent assay.

For data set [3], the system named is naïve BV2 microglial cells. Description: Abeta40 uptake assay into naïve BV2 microglial cells (Cisbio Abeta40 HTRF). The conditions noted are these: naïve BV2, 3 h pre-treatment, 300 nM Abeta40 for 2 h (FIG. 5). How it is done:
as §1, §2

Data set [4] has as its system wt-CD33 expressing BV2 cells. Kind of data set: Abeta42 uptake assay into wt-CD33 expressing BV2 cells (Wako Abeta42 ELISA). The note with it: wt-CD33 expressing BV2, 3 h pre-treatment, 300 nM Abeta42 for 2 h (FIG. 4). As to the method: as §1, §2
Data set [5] has as its system naïve BV2 microglial cells. Description: LDH toxicity assay (CytoTox-ONE) on naïve BV2 microglial cells. The conditions noted are these: 5 hours of treatment (FIG. 1). How it is done:
as §1
(§3) Naïve BV2 Cells, or BV2 stably expressing wt-CD33, were seeded in 24-well plates at the density of 2.5×10E5 cells for BV2 and 4×10E5 cells for wt-CD33 clone, in proliferating media. On the following day, cells were treated with compounds, or DMSO as a control, at different concentrations in proliferating media for 3 hours. For Abeta42 and Abeta40 uptake assays, cells were washed twice with 500 μL/well of PBS and treated with compounds/DMSO in the presence of 300 nM Abeta peptide in DMEM media for 2 hours. At the end of the 2 hour incubation, 150 μL of media were collected from the 24-well plates. They were centrifuged at 4° C., 2500 rpm for 10 min, transferred to new plates and used to assess compounds toxicity with CytoTox-ONE™ (LDH) assay. […] Protein concentrations in the lysate supernatants were determined with the Pierce™ BCA protein assay kit. 2-3 μg/well of protein from the lysates was analyzed for Abeta42 uptake using the Wako Abeta42 ELISA kit. […]

In data set [6] the test system is wtCD33-expressing microglial cells. Description: LDH toxicity assay (CytoTox-ONE) on wtCD33-expressing microglial cells. The note with it: 5 hours of treatment (FIG. 2). How it is done: as §1, §3
In data set [7] the test system is naïve BV2 microglial cells. Description: Abeta42 uptake assay in microglial cells, 24-hour pre-treatment protocol. How it is done:
(§4) The protocol used for 24-hour pre-treatment testing in microglial cells was as follows.
(§5) On day zero the naïve BV2 microglial cells were seeded in proliferating media.
(§6) On day one the cells were then treated with 817MA, or DMSO as a control, in proliferating media for 24 hours, at concentrations ranging from 0 to 50 μM.
(§7) On day two the cells were then washed twice with PBS and treated with compounds/DMSO in the presence of 300 nM Abeta42 peptide in DMEM media for 2 hours. The compounds toxicity was assessed in the media collected at the end of the treatment with CytoTox-ONE™ (LDH) assay. The remaining cells were lysed with RIPA buffer supplemented with protease and phosphatase inhibitors. Protein concentrations were determined with the Pierce™ BCA protein assay kit. Normalized lysates were analyzed for Abeta42 uptake using the Wako Abeta42 ELISA kit.

Data set [8] deals with naïve BV2 microglial cells. Kind of data set: LDH toxicity assay in microglial cells, 24-hour pre-treatment protocol. The conditions noted are these: 24 h pre-treatment (FIG. 25). How it is done:
as §4, §5, §6, §7

In data set [9] the test system is LPS-activated BV2 microglial cells. Description: BV2 LPS activation cytokine assay (MSD Proinflammatory Panel 1). The note with it: BV2, 1 μg/mL LPS 3 h, maleate. As to the method: as §1
For microglial activation experiments, cells were treated with compounds/DMSO in the presence of 1 μg/mL LPS in proliferating media for 3 hours. The media was collected, cleared of particulate and analyzed using MSD Proinflammatory Panel 1 cytokine assay kit.
FIG. 7 tabulates the results from an LPS activation testing of microglial cells, showing that cytokines KC/GRO, IL-6, IL-10 and TNF-α were detectable upon LPS activation, although KC/GRO was only detectable in undiluted media. The 10 cytokines were simultaneously analyzed in microglial conditioned media. FIG. 8-15 show the results for an assay to test the effect of test compounds DMSO, 817MA, 817A11 and 614P on cytokines KC/GRO, IL-6, IL-10 and TNF-α. […] The two sequential assays determine which if any cytokines are detected upon LPS activation, followed by determination of the reduction in detectable cytokines upon treatment/exposure to a test compound.

pEC50: −log10 of the molar value. Entries after “also recorded” stand apart in the source; their conditions may differ.

As to `CS(=O)(=O)Nc1cc2occ(NC=O)c(=O)c2cc1Oc1ccccc1` [Compound 614P, N-(3-formamido-4-oxo-6-phenoxy-4H-chromen-7-yl)], the “Abeta40 uptake EC50 (comparison between compounds)” value in data set [1] is “higher EC50 than both 817MA and 817A11”; in data set [3], “higher EC50 than both 817MA and 817A11”. The “Abeta42 uptake EC50 (comparison between compounds)” value in data set [2] and in data set [4] was “higher EC50” each time. For the same compound, the LDH toxicity result in [5] and in data set [6] was “No statistically significant toxicity” throughout.

For the compound `O=C(CCOCCc1ccc2sccc2c1)N1CC(O)C1` [Compound 817A11, 1-{3-[2-(1-benzothiophen-5-yl)ethoxy]propionyl}azetidin-3-ol], the “Abeta40 uptake EC50 (comparison between compounds)” value in data set [1] and in [3] was “lower EC50 Abeta40 uptake than 817MA treated cells” each time. Besides, the LDH toxicity result in data set [5] and in data set [6] was “No statistically significant toxicity” throughout.

Turning to `O=C(O)/C=C\C(=O)O.OC1CN(CCCOCCc2ccc3sccc3c2)C1` [Compound 817MA, 1-(3-(2-(1-benzothiophen-5-yl)ethoxy)propyl)azetidin-3-ol maleate], the pEC50 – broadly, the negative decadic logarithm of the EC50, by convention in mol/L – in [7] (Mus musculus, BV-2, following 24 hours of compound pre-treatment (FIG. 26)) was roughly 4.70. In addition, the “Abeta42 uptake versus DMSO control” value in data set [7] (above about 1 μM, 24 h pre-treatment (FIG. 26)) was “greater than the DMSO control”. The “LDH toxicity compared to DMSO” value in data set [8] (at about 30 μM) is recorded as “no statistically significant toxicity”. In addition, the LDH toxicity entry in data set [8] (below about 50 μM) is recorded as “low or no toxicity”; in [5] it was “No statistically significant toxicity”; in data set [6] it was “No statistically significant toxicity”. The “TNFα production upon LPS activation” value in [9] (first and second experiment (FIG. 8, 9)) was “reduced concentrations; also recorded: only compound effectively reducing TNFα production”. Further, in [9] (first and second experiment (FIG. 10, 11)), the “IL-6 production upon LPS activation” value is “reduced concentrations; also recorded: most effective compound for reducing IL-6 production”. Besides, the “IL-10 production upon LPS activation” value in data set [9] (first and second experiment (FIG. 12, 13)) is recorded as “reduced concentrations; also recorded: most effective compound for reducing IL-10 production”.
